This passage reports Ki and melting point results from patent US20080293771A1, “AZACYCLYLBENZAMIDE DERIVATIVES AS HISTAMINE-3 ANTAGONISTS” (Wyeth, priority 2007, published 2008).

pKi: −log10 of the molar value. Structures can show the parent of a compound that is named as a salt.

Data set [1] concerns the target T1, Human Histamine H3 Receptor (Homo sapiens, UniProt Q9Y5N1).
T1 construct: expressed in transfected cells; host or cells: HEK293T (stably transfected; membrane preparation)
Nature of the data set: Methyl histamine binding in Human Histamine H3 Receptor Cell Line. Particulars: read-out: hH3 Binding Ki. How it is done: Evaluation of Methyl histamine binding in Human Histamine H3 Receptor Cell Line
The affinity of test compounds for the histamine 3 (H3) receptor is evaluated in the following manner. […] Cells are scraped from the plate, transferred to centrifuge tubes, washed one time in PBS by centrifugation in a Sorvall RT7 Plus centrifuge (2000 rpm 10 minutes, 4° C.). The resulting pellets are stored at −80° C. until ready for use. Cells are re-suspended in buffer (50 mM Tris pH=7.5) and placed in a Dounce homogenizer, douncing ten times to homogenize cells. The homogenate is spun down by centrifugation (Sorvall RT7 Plus, 1800 rpm 10 minutes, 4° C.). The supernatant is placed in a Corex tube and spun down by centrifugation (Sorvall RC 5c Plus, 17,000 rpm 20 minutes, 4° C.). The pellet is resuspended in buffer (50 mM Tris, pH 7.5). Protein concentration (ug/ul) is determined using the Micro-BCA Protein Determination. The binding assay is set up in a 96 well microtiter plate in a total volume of 250 uL. Non-specific binding is determined in the presence of 10 uM clobenpropit. The final radioligand concentration is 1 nM. The test compound is serially diluted using the Beckman Biomek2000 to a final approximate range of 100 uM to 100 pM. Membranes are suspended in buffer, homogenized in 2 bursts of ten seconds using a Vitris mechanical homogenizer set at power setting 5. Ten μg of membranes are added to each well. Following a one hour incubation at 30° C., the reaction is terminated by the addition of ice cold buffer and rapid filtration with a Packard Filtermate Harvester through a GF/B filter pre-soaked with 1% PEI for one hour. The plate is dried for one hour at 37° C. and 60 μL Microscint Scintillant is added to each well. The CPM per well is measured on a Packard Top Count NXT. Ki values are determined in nM. […] CPM values are expressed as % specific binding and plotted vs compound concentration. A curve is fitted using a four-parameter logistic fit and the IC50 value is determined. The Ki is calculated from this using the Cheng-Prusoff equation: […]=IC50/1+(L/Kd) where L=concentration of free radioligand used in the assay, and Kd is the dissociation constant of the radioligand for the receptor. L is determined for each experiment by counting an aliquot of the diluted radioligand (corresponding to that added to each well) and the Kd has previously been determined under identical conditions for this cell line/radioligand.

T1 sequence (Q9Y5N1 whole entry): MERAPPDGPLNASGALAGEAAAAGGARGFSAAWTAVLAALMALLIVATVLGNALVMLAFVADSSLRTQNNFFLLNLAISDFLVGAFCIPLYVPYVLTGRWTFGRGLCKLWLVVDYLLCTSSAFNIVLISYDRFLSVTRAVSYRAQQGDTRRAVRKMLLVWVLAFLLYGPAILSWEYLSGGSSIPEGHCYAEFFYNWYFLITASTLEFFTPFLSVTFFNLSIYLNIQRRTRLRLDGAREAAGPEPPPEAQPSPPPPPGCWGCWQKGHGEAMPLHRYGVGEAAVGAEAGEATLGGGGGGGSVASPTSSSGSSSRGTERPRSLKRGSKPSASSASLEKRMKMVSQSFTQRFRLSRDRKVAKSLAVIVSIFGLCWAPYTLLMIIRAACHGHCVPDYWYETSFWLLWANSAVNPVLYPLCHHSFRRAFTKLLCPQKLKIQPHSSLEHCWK

What is called pKi is −log10 of the Ki, conventionally taken in molar units. Turning to `CN(C(=O)c1ccc(Cn2ncc3ccccc32)cc1)[C@@H]1CCN(C2CCCC2)C1` [Example 78, N-[(3R)-1-cyclopentylpyrrolidin-3-yl]-4-(1H-indazol-1-ylmethyl)-N-methylbenzamide], the pKi in data set [1] was 7.00 to 7.30. For `CN(C(=O)c1ccc(-n2ncc3ccccc32)cc1)[C@@H]1CCN(C2CCC2)C1` [Example 65, N-[(3R)-1-cyclobutylpyrrolidin-3-yl]-4-(1H-indazol-1-yl)-N-methylbenzamide], the pKi in data set [1] is not below 8.00. Take `CCN(C(=O)c1ccc(-n2c(C)nc3ccccc32)cc1)[C@@H]1CCN(C2CCCCC2)C1` [Example 142, N-[(3R)-1-cyclohexylpyrrolidin-3-yl]-N-ethyl-4-(2-methyl-1H-benzimidazol-1-yl)benzamide]: in data set [1], the pKi is less than 7.00. The same measure, in the same setting: for `Cc1nc2ccccc2n1-c1ccc(C(=O)N(C)C2CCN(C3CCCC3)CC2)c(Cl)c1` [Example 122, 2-chloro-N-(1-cyclopentylpiperidin-4-yl)-N-methyl-4-(2-methyl-1H-benzimidazol-1-yl)benzamide] the value was 7.00 to 7.30.

Regarding `Cc1nc2ccccc2n1-c1ccc(C(=O)N(C)C2CCN(C(C)C)CC2)cc1F` [Example 119, 3-fluoro-N-methyl-4-(2-methyl-1H-benzimidazol-1-yl)-N-[1-(1-methylethyl)piperidin-4-yl]benzamide], in data set [1], the pKi was not below 8.00.

For the compound `Cc1nc2cc(C#N)ccc2n1-c1ccc(C(=O)N(C)[C@@H]2CCN(C3CCC3)C2)cc1` [Example 55, 4-(5-cyano-2-methyl-1H-benzimidazol-1-yl)-N-[(3R)-1-cyclobutylpyrrolidin-3-yl]-N-methylbenzamide], the pKi in data set [1] is not below 8.00. Consider `CN(C(=O)c1ccc(Cn2ncc3ccccc32)cc1)C1CCN(C2CCCC2)CC1` [Example 81, N-(1-cyclopentylpiperidin-4-yl)-4-(1H-indazol-1-ylmethyl)-N-methylbenzamide], for which the pKi in data set [1] is less than 7.00. Turning to `Cc1nc2ccccc2n1-c1ccc(C(=O)N(C)C2CCN(C(C)C)CC2)c(Cl)c1` [Example 121, 2-chloro-N-methyl-4-(2-methyl-1H-benzimidazol-1-yl)-N-[1-(1-methylethyl)piperidin-4-yl]benzamide], the negative-log Ki (pKi) in data set [1] is not below 8.00. With `CN(C(=O)c1ccc(Cn2ncc3ccccc32)cc1)[C@@H]1CCNC1` [Example 75, (R)-4-((1H-indazol-1-yl)methyl)-N-methyl-N-(pyrrolidin-3yl)benzamide], the negative logarithm of the Ki (pKi) in data set [1] is less than 7.00.

In the case of `CN(C(=O)c1ccc(Cn2cnc3ccccc32)cc1)[C@@H]1CCNC1` [Example 36, (R)-4-((1H-benzo[d]imidazol-1-yl)methyl)-N-methyl-N-(pyrrolidin-3-yl)benzamide Hydrochloride], the pKi in data set [1] was less than 7.00. On the same count and under the same terms, next, `CN(C(=O)c1ccc(-n2cccn2)cc1)C1CCN(C2CCC2)CC1` [Example 86, N-(1-cyclobutylpiperidin-4-yl)-N-methyl-4-(1H-pyrazol-1-yl)benzamide]: less than 7.00; `CN(C(=O)c1ccc(Cn2ncc3ccccc32)cc1)[C@@H]1CCN(C2CCC2)C1` [Example 77, N-[(3R)-1-cyclobutylpyrrolidin-3-yl]-4-(1H-indazol-1-ylmethyl)-N-methylbenzamide]: 7.30 to 8.00.

For orientation: melting point means the temperature, or range, at which the solid turns liquid. Compound `Cc1nc2ccccc2n1Cc1ccc(C(=O)N(C)C2CCN(C(C)C)CC2)c2ccccc12` (as salt: hydrochloride) [Example 144b, N-(1-isopropylpiperidin-4-yl)-N-methyl-4-((2-methyl-1H-benzo[d]imidazol-1-yl)methyl)-1-naphthamide] registered a melting point of 153 to 155 °C.

In the case of `COc1cc(C(=O)N(C)C2CCN(C3CCCC3)CC2)ccc1-n1c(C)nc2ccccc21` (as salt: hydrochloride) [Example 126, N-(1-cyclopentylpiperidin-4-yl)-3-methoxy-N-methyl-4-(2-methyl-1H-benzimidazol-1-yl)benzamide], the melting point was in the range of 244 to 246 °C. The same measure, in the same setting: for `Cc1nc2ccccc2n1-c1ccc(C(=O)N(C)[C@@H]2CCN(C3CCC3)C2)cc1` (as salt: hydrochloride) the value was 175 to 176 °C; for `COc1cc(-n2c(C)nc3ccccc32)ccc1C(=O)N(C)C1CCN(C(C)C)CC1` (as salt: hydrochloride) [Example 127, N-(1-isopropylpiperidin-4-yl)-2-methoxy-N-methyl-4-(2-methyl-1H-benzo[d]imidazol-1-yl)benzamide], 215 to 217 °C; for `Cc1nc2ccccc2n1-c1ccc(C(=O)N(C)C2CCN(C3CCCC3)CC2)c(Cl)c1` (as salt: hydrochloride) [Example 122, 2-chloro-N-(1-cyclopentylpiperidin-4-yl)-N-methyl-4-(2-methyl-1H-benzimidazol-1-yl)benzamide], 240 °C (dec.). Same read-out and setting: next, `Cc1nc2ccccc2n1-c1ccc(C(=O)N(C)C2CCN(C3CCCCC3)CC2)cc1` (as salt: hydrochloride) [Example 33, N-(1-cyclohexylpiperidin-4-yl)-N-methyl-4-(2-methyl-1H-benzimidazol-1-yl)benzamide]: 285 °C (dec.). Compound `Cc1cc(C(=O)N(C)[C@@H]2CCN(C3CCC3)C2)ccc1-n1c(C)nc2ccccc21` (as salt: hydrochloride) [Example 108, N-[(3R)-1-cyclobutylpyrrolidin-3-yl]-N,3-dimethyl-4-(2-methyl-1H-benzimidazol-1-yl)benzamide] displayed a melting point of 164 to 166 °C. As for `CN(C(=O)c1ccc(-n2cccn2)cc1)C1CCN(C2CCCC2)CC1` (as salt: hydrochloride) [Example 87, N-(1-cyclopentylpiperidin-4-yl)-N-methyl-4-(1H-pyrazol-1-yl)benzamide], the melting point was 240 °C (dec.). On to `Cc1nc2ccccc2n1Cc1ccc(C(=O)N(C)[C@@H]2CCNC2)cc1` (as salt: hydrochloride) [Example 35, N-Methyl-4-[(2-methylbenzimidazol-1-yl)methyl]-N—(R)-pyrrolidin-3-yl-benzamide Hydrochloride], for which the melting point lay within 126 to 128 °C. Compound `COc1cc(-n2c(C)nc3ccccc32)ccc1C(=O)N(C)[C@@H]1CCN(C2CCC2)C1` (as salt: hydrochloride) [Example 112, (R)—N-(1-cyclobutylpyrrolidin-3-yl)-2-methoxy-N-methyl-4-(2-methyl-1H-benzo[d]imidazol-1-yl)benzamide] yielded a melting point of 202 to 204 °C. Still for that read-out and setting: for `Cc1nc2ccccc2n1-c1ccc(C(=O)N(C)[C@@H]2CCN(C3CCC3)C2)c(Cl)c1` (as salt: hydrochloride) [Example 106, 2-chloro-N-[(3R)-1-cyclobutylpyrrolidin-3-yl]-N-methyl-4-(2-methyl-1H-benzimidazol-1-yl)benzamide] the value was 207 to 209 °C. `Cc1nc2cc(C#N)ccc2n1-c1ccc(C(=O)N(C)[C@@H]2CCN(C(C)C)C2)cc1` (as salt: hydrochloride) [Example 54, 4-(5-cyano-2-methyl-1H-benzimidazol-1-yl)-N-[(3R)-1-isopropylpyrrolidin-3-yl]-N-methylbenzamide] had a melting point of 230 to 232 °C. On the same count and under the same terms, next, `CN(C(=O)c1ccc(-n2cc3ccccc3n2)cc1)C1CCN(C2CCC2)CC1` (as salt: hydrochloride) [Example 70, N-(1-cyclobutylpiperidin-4-yl)-4-(2H-indazol-2-yl)-N-methylbenzamide]: 273 to 275 °C. In turn, `Cc1nc2ccccc2n1-c1ccc(C(=O)N(C)C2CCN(C(C)C)CC2)cc1F` (as salt: hydrochloride) [Example 119, 3-fluoro-N-methyl-4-(2-methyl-1H-benzimidazol-1-yl)-N-[1-(1-methylethyl)piperidin-4-yl]benzamide] came in with a melting point of 279 to 281 °C. In the case of `CN(C(=O)c1ccc(-n2ncc3ccccc32)cc1)C1CCN(C2CCC2)CC1` (as salt: hydrochloride) [Example 73, N-(1-cyclobutylpiperidin-4-yl)-4-(1H-indazol-1-yl)-N-methylbenzamide], the melting point is 160 °C (dec.). Still for that read-out and setting: for `Cc1nc2ccccc2n1-c1ccc(C(=O)N(C)C2CCN(C3CCCC3)CC2)cc1F` (as salt: hydrochloride) [Example 120, N-(1-cyclopentylpiperidin-4-yl)-3-fluoro-N-methyl-4-(2-methyl-1H-benzimidazol-1-yl)benzamide] the value was 250 °C (dec.); for `CC(C)N1CCC(N(C)C(=O)c2ccc(-n3cccn3)cc2)CC1` (as salt: hydrochloride) [Example 85, N-(1-isopropylpiperidin-4-yl)-N-methyl-4-(1H-pyrazol-1-yl)benzamide], 285 to 286 °C.
